29 molecules from patent US8710065B2, “Tricyclic inhibitors of kinases” (AbbVie Inc., priority 2011, dated 2014) can be followed below.

T1 sequence (P30291 whole entry): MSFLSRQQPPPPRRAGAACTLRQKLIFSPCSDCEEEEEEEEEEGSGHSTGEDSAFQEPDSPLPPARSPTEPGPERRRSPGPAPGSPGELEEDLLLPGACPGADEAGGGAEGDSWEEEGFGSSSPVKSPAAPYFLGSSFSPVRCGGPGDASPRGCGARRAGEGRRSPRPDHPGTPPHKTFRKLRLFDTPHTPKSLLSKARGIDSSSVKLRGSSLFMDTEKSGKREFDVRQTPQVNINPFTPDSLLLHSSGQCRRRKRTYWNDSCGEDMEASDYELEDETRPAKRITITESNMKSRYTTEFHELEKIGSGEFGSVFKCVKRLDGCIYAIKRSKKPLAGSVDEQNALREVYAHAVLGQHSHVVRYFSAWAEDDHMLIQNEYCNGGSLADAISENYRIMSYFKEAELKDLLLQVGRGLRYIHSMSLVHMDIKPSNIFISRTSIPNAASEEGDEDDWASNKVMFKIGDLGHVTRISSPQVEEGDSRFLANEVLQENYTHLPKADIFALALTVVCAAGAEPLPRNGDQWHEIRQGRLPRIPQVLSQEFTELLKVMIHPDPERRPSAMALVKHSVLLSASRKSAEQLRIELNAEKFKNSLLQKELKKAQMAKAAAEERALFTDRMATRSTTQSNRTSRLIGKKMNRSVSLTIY

The assay addresses T1, GST-tagged-Wee1 kinase (Homo sapiens, UniProt P30291).
T1 construct: purchased Carnabio (Carna Biosciences) 05-177
As to the kind of experiment: Wee1 time-resolved fluorescence equilibrium binding assay (displacement of Oregon Green-labeled ATP-competitive kinase probe). The settings on record: read-out: Wee-1 inhibition (Ki). An outline of the steps: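 Ki values derive from competitive displacement, under equilibrium, of a fast-reversible ATP-site Oregon Green kinase probe from GST-tagged Wee1, detected by time-resolved fluorescence.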
As for `O=c1c2cnc(Nc3ccc4c(c3)CCCNC4)nc2n2ccnc2n1-c1ccccc1Cl` [Example 106, 6-(2-chlorophenyl)-2-(2,3,4,5-tetrahydro-1H-2-benzazepin-7-ylamino)imidazo[1,2-a]pyrimido[5,4-e]pyrimidin-5(6H)-one], the Ki (as a rule, a dissociation constant, usually derived from enzyme kinetics or from competition with a known ligand) is under 0.01 µM.

In the case of `CN1CCc2ccc(Nc3ncc4c(=O)n(-c5ccccc5Cl)c5nccn5c4n3)cc2CC1` [Example 107, 6-(2-chlorophenyl)-2-[(3-methyl-2,3,4,5-tetrahydro-1H-3-benzazepin-7-yl)amino]imidazo[1,2-a]pyrimido[5,4-e]pyrimidin-5(6H)-one], the Ki was under 0.01 µM.

Turning to `CN1CCc2ccc(Nc3ncc4c(=O)n(-c5ccccc5Cl)c5nccn5c4n3)cc2C1(C)C` [Example 108, 6-(2-chlorophenyl)-2-[(1,1,2-trimethyl-1,2,3,4-tetrahydroisoquinolin-7-yl)amino]imidazo[1,2-a]pyrimido[5,4-e]pyrimidin-5(6H)-one], the Ki is under 0.01 µM.

In the case of `O=c1c2cnc(Nc3ccc4c(c3)CNCC43CC3)nc2n2ccnc2n1-c1c(Cl)cccc1Cl` [Example 109, 6-(2,6-dichlorophenyl)-2-(2′,3′-dihydro-1′H-spiro[cyclopropane-1,4′-isoquinolin]-7′-ylamino)imidazo[1,2-a]pyrimido[5,4-e]pyrimidin-5(6H)-one], the Ki was under 0.01 µM.

For `Cc1cc(Nc2ncc3c(=O)n(-c4c(Cl)cccc4Cl)c4nccn4c3n2)ccc1N1CCNCC1` [Example 110, 6-(2,6-dichlorophenyl)-2-{[3-methyl-4-(piperazin-1-yl)phenyl]amino}imidazo[1,2-a]pyrimido[5,4-e]pyrimidin-5(6H)-one], the Ki is under 0.01 µM.

As to `O=c1c2cnc(Nc3ccc4c(c3)CNCC4)nc2n2ccnc2n1-c1c(Cl)cccc1Cl` [Example 111, 6-(2,6-dichlorophenyl)-2-(1,2,3,4-tetrahydroisoquinolin-7-ylamino)imidazo[1,2-a]pyrimido[5,4-e]pyrimidin-5(6H)-one], the Ki was under 0.01 µM.

As for `CCc1cc(Nc2ncc3c(=O)n(-c4ccccc4Cl)c4nccn4c3n2)ccc1N1CCN(C)CC1` [Example 112, 6-(2-chlorophenyl)-2-{[3-ethyl-4-(4-methylpiperazin-1-yl)phenyl]amino}imidazo[1,2-a]pyrimido[5,4-e]pyrimidin-5(6H)-one], the Ki is under 0.01 µM.

Regarding `CC1(C)CN(CC2CCCCC2)Cc2cc(Nc3ncc4c(=O)n(-c5ccccc5Cl)c5nccn5c4n3)ccc21` [Example 113, 6-(2-chlorophenyl)-2-{[2-(cyclohexylmethyl)-4,4-dimethyl-1,2,3,4-tetrahydroisoquinolin-7-yl]amino}imidazo[1,2-a]pyrimido[5,4-e]pyrimidin-5(6H)-one], the Ki is under 0.01 µM.

`CN(C)C1Cc2ccc(Nc3ncc4c(=O)n(-c5c(Cl)cccc5Cl)c5nccn5c4n3)cc2C1` (centres unmarked) [Example 114, 6-(2,6-dichlorophenyl)-2-{[2-(dimethylamino)-2,3-dihydro-1H-inden-5-yl]amino}imidazo[1,2-a]pyrimido[5,4-e]pyrimidin-5(6H)-one]: the Ki is under 0.01 µM.

For `CC(C)N1CCN(c2ccc(Nc3ncc4c(=O)n(-c5c(Cl)cccc5Cl)c5nccn5c4n3)cc2)CC1` [Example 115, 6-(2,6-dichlorophenyl)-2-({4-[4-(propan-2-yl)piperazin-1-yl]phenyl}amino)imidazo[1,2-a]pyrimido[5,4-e]pyrimidin-5(6H)-one], the Ki was under 0.01 µM.

Consider `O=c1c2cnc(Nc3ccc(N4CCN5CCCC5C4)cc3)nc2n2ccnc2n1-c1c(Cl)cccc1Cl` (centres unmarked) [Example 116, 6-(2,6-dichlorophenyl)-2-{[4-(hexahydropyrrolo[1,2-a]pyrazin-2(1H)-yl)phenyl]amino}imidazo[1,2-a]pyrimido[5,4-e]pyrimidin-5(6H)-one], for which the Ki is under 0.01 µM.

On to `CCC(CC)CN1Cc2cc(Nc3ncc4c(=O)n(-c5ccccc5Cl)c5nccn5c4n3)ccc2C(C)(C)C1` [Example 117, 6-(2-chlorophenyl)-2-{[2-(2-ethylbutyl)-4,4-dimethyl-1,2,3,4-tetrahydroisoquinolin-7-yl]amino}imidazo[1,2-a]pyrimido[5,4-e]pyrimidin-5(6H)-one], for which the Ki was in the range of 0.01 to 0.1 µM.

Regarding `CN1CCN(CCc2ccc(Nc3ncc4c(=O)n(-c5c(Cl)cccc5Cl)c5nccn5c4n3)cc2)CC1` [Example 118, 6-(2,6-dichlorophenyl)-2-({4-[2-(4-methylpiperazin-1-yl)ethyl]phenyl}amino)imidazo[1,2-a]pyrimido[5,4-e]pyrimidin-5(6H)-one], the Ki is under 0.01 µM.

In the case of `CN(C)CCN1CCc2cc(Nc3ncc4c(=O)n(-c5c(Cl)cccc5Cl)c5nccn5c4n3)ccc21` [Example 119, 6-(2,6-dichlorophenyl)-2-({1-[2-(dimethylamino)ethyl]-2,3-dihydro-1H-indol-5-yl}amino)imidazo[1,2-a]pyrimido[5,4-e]pyrimidin-5(6H)-one], the Ki was under 0.01 µM.

As to `CCc1cc(Nc2ncc3c(=O)n(-c4c(Cl)cccc4Cl)c4nccn4c3n2)ccc1N1CCN(C)CC1` [Example 120, 6-(2,6-dichlorophenyl)-2-{[3-ethyl-4-(4-methylpiperazin-1-yl)phenyl]amino}imidazo[1,2-a]pyrimido[5,4-e]pyrimidin-5(6H)-one], the Ki was under 0.01 µM.

As for `CN1CCCN(c2ccc(Nc3ncc4c(=O)n(-c5c(Cl)cccc5Cl)c5nccn5c4n3)cc2CO)CC1` [Example 121, 6-(2,6-dichlorophenyl)-2-{[3-(hydroxymethyl)-4-(4-methyl-1,4-diazepan-1-yl)phenyl]amino}imidazo[1,2-a]pyrimido[5,4-e]pyrimidin-5(6H)-one], the Ki is under 0.01 µM.

As to `O=c1c2cnc(Nc3ccc4c(c3)CCNC4)nc2n2ccnc2n1-c1c(Cl)cccc1Cl` [Example 122, 6-(2,6-dichlorophenyl)-2-(1,2,3,4-tetrahydroisoquinolin-6-ylamino)imidazo[1,2-a]pyrimido[5,4-e]pyrimidin-5(6H)-one], the Ki was under 0.01 µM.

Consider `CN1CCN(c2ccc(Nc3ncc4c(=O)n(-c5c(Cl)cc(F)cc5Cl)c5nccn5c4n3)cc2)CC1` [Example 123, 6-(2,6-dichloro-4-fluorophenyl)-2-{[4-(4-methylpiperazin-1-yl)phenyl]amino}imidazo[1,2-a]pyrimido[5,4-e]pyrimidin-5(6H)-one], for which the Ki is under 0.01 µM.

For the molecule `Cc1cc(Nc2ncc3c(=O)n(-c4c(Cl)cc(F)cc4Cl)c4nccn4c3n2)ccc1N1CCCN(C)CC1` [Example 124, 6-(2,6-dichloro-4-fluorophenyl)-2-{[3-methyl-4-(4-methyl-1,4-diazepan-1-yl)phenyl]amino}imidazo[1,2-a]pyrimido[5,4-e]pyrimidin-5(6H)-one], the Ki was under 0.01 µM.

Turning to `CN1Cc2cc(Nc3ncc4c(=O)n(-c5c(Cl)cc(F)cc5Cl)c5nccn5c4n3)ccc2C2(CC2)C1` [Example 125, 6-(2,6-dichloro-4-fluorophenyl)-2-[(2′-methyl-2′,3′-dihydro-1′H-spiro[cyclopropane-1,4′-isoquinolin]-7′-yl)amino]imidazo[1,2-a]pyrimido[5,4-e]pyrimidin-5(6H)-one], the Ki was under 0.01 µM.

On to `CN(C)C1Cc2ccc(Nc3ncc4c(=O)n(-c5c(Cl)cc(F)cc5Cl)c5nccn5c4n3)cc2C1` (centres unmarked) [Example 126, 6-(2,6-dichloro-4-fluorophenyl)-2-{[2-(dimethylamino)-2,3-dihydro-1H-inden-5-yl]amino}imidazo[1,2-a]pyrimido[5,4-e]pyrimidin-5(6H)-one], for which the Ki is under 0.01 µM.

Consider `CN1CCN(Cc2ccc(Nc3ncc4c(=O)n(-c5c(Cl)cccc5Cl)c5nccn5c4n3)cc2)CC1` [Example 127, 6-(2,6-dichlorophenyl)-2-({4-[(4-methylpiperazin-1-yl)methyl]phenyl}amino)imidazo[1,2-a]pyrimido[5,4-e]pyrimidin-5(6H)-one], for which the Ki is under 0.01 µM.

For `C[C@@H]1CN(c2ccc(Nc3ncc4c(=O)n(-c5c(Cl)cccc5Cl)c5nccn5c4n3)cc2F)C[C@H](C)N1` [Example 128, 6-(2,6-dichlorophenyl)-2-({4-[(3R,5S)-3,5-dimethylpiperazin-1-yl]-3-fluorophenyl}amino)imidazo[1,2-a]pyrimido[5,4-e]pyrimidin-5(6H)-one], the Ki is under 0.01 µM.

As for `O=c1c2cnc(Nc3cc(F)c(N4CCNCC4)c(F)c3)nc2n2ccnc2n1-c1c(Cl)cccc1Cl` [Example 129, 6-(2,6-dichlorophenyl)-2-{[3,5-difluoro-4-(piperazin-1-yl)phenyl]amino}imidazo[1,2-a]pyrimido[5,4-e]pyrimidin-5(6H)-one], the Ki is under 0.01 µM.

`CC1(C)CN(CC2CC2)Cc2cc(Nc3ncc4c(=O)n(-c5ccccc5Cl)c5nccn5c4n3)ccc21` [Example 130, 6-(2-chlorophenyl)-2-{[2-(cyclopropylmethyl)-4,4-dimethyl-1,2,3,4-tetrahydroisoquinolin-7-yl]amino}imidazo[1,2-a]pyrimido[5,4-e]pyrimidin-5(6H)-one]: the Ki is under 0.01 µM.

Turning to `CC1(C)CN(Cc2cccnc2)Cc2cc(Nc3ncc4c(=O)n(-c5ccccc5Cl)c5nccn5c4n3)ccc21` [Example 131, 6-(2-chlorophenyl)-2-{[4,4-dimethyl-2-(pyridin-3-ylmethyl)-1,2,3,4-tetrahydroisoquinolin-7-yl]amino}imidazo[1,2-a]pyrimido[5,4-e]pyrimidin-5(6H)-one], the Ki was under 0.01 µM.

On to `CC1(C)CN(Cc2ccsc2)Cc2cc(Nc3ncc4c(=O)n(-c5ccccc5Cl)c5nccn5c4n3)ccc21` [Example 132, 6-(2-chlorophenyl)-2-{[4,4-dimethyl-2-(thiophen-3-ylmethyl)-1,2,3,4-tetrahydroisoquinolin-7-yl]amino}imidazo[1,2-a]pyrimido[5,4-e]pyrimidin-5(6H)-one], for which the inhibition constant Ki is under 0.01 µM.

In the case of `CN1CCc2cc(Nc3ncc4c(=O)n(-c5ccccc5Cl)c5nccn5c4n3)ccc2C1(C)C` [Example 133, 6-(2-chlorophenyl)-2-[(1,1,2-trimethyl-1,2,3,4-tetrahydroisoquinolin-6-yl)amino]imidazo[1,2-a]pyrimido[5,4-e]pyrimidin-5(6H)-one], the Ki is under 0.01 µM.

As for `O=c1c2cnc(Nc3ccc(C4CCCN4)cc3)nc2n2ccnc2n1-c1c(Cl)cccc1Cl` (centres unmarked) [Example 134, 6-(2,6-dichlorophenyl)-2-{[4-(pyrrolidin-2-yl)phenyl]amino}imidazo[1,2-a]pyrimido[5,4-e]pyrimidin-5(6H)-one], the Ki was under 0.01 µM.
